The record followed here is the METLIN SMRT retention time set (Domingo-Almenara et al. 2019).

This series can be described thus: gradient 5% acetonitrile 3 min, to 50% in 2 min, to 85% in 15 min, held 3 min, 100 µL/min. As to conditions: column: Zorbax Extend-C18 2.1 x 50 mm; eluents: water / acetonitrile, 0.1% formic acid. In outline:
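Pure standards were analyzed in mixtures of ~100 molecules using HPLC coupled to a quadrupole time-of-flight mass spectrometer, in both positive and negative ionization mode. Separation used a Zorbax Extend-C18 column (2.1 × 50 mm, 1.8 μm) at 100 μL/min, with water and acetonitrile each containing 0.1% formic acid. Dead and dwell volumes were 40 μL and 900 μL, and data were collected over 3 months. Retention time was read from computationally picked adduct peaks, each inspected manually.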
Compound `Cc1ccn2c(NC(=O)c3cccs3)c(-c3ccccc3)nc2c1` displayed an RP-LC retention time of 633 s.

Regarding `Cc1cccc(-c2nc(Cn3nnc(-c4nc(-c5ccc(Cl)cc5)no4)c3C)c(C)o2)c1`, the RP-LC retention time was 1320 s.

`O=C(CC1CCN(C(=O)NC2CCCC2)CC1)N1CCCCC1`: the RP-LC retention time is 695 s.

`COc1ccc(N2CC(c3nnc(NC(=O)COc4ccc(C)cc4)o3)CC2=O)cc1` (stereo not drawn) had an RP-LC retention time of 742 s.

`Cc1nn(-c2nc(-c3ccc(Cl)cc3)cs2)c(C)c1CC(=O)Nc1ccccc1F` had an RP-LC retention time of 1260 s.

The compound `O=C(c1ccccc1)N1CCC(CCNS(=O)(=O)c2ccc(Br)cc2)CC1` gave an RP-LC retention time of 909 s.

`CCc1nc(-c2csc(S(=O)(=O)N3CCCC(C(=O)NCc4cccnc4)C3)c2)no1` (stereo not drawn) gave an RP-LC retention time of 660 s.

On to `CN1CCN(CCNC(=O)C2CCc3sc(C(=O)N4CCOCC4)cc3C2)CC1` (stereo not drawn), for which the RP-LC retention time was 543 s.

In the case of `O=C(NCCC1=CCCCC1)C1CCN(C(=O)C2Sc3ccccc3NC2=O)CC1` (stereo not drawn), the RP-LC retention time was 802 s.

The compound `O=C(Cn1c(=O)c2cc(-c3cccs3)nn2c2ncccc21)Nc1ccc(Cl)cc1` had an RP-LC retention time of 932 s.

Compound `CCCCNC(=O)c1cn(CCC)nc1S(=O)(=O)N1CCN(c2ccccc2OCC)CC1` gave an RP-LC retention time of 1140 s.

In turn, `Cn1ccc2c(cc(C(=O)NCc3cc(F)cc(F)c3)n2C)c1=O` gave an RP-LC retention time of 701 s.

In the case of `COC(=O)Nc1nc(CC(=O)NCc2cn3ccccc3n2)cs1`, the RP-LC retention time worked out at 617 s.

Turning to `Cc1nc(C)c(C(=O)NC2CCN(c3ccc(=O)n(CCOc4ccccc4)n3)C2)s1` (stereo not drawn), the RP-LC retention time is 703 s.

`CNC(=O)c1[nH]c2ccc(C)cc2c1N1CCCC1=O` had an RP-LC retention time of 675 s.

For `CCN1CCN(c2ccc(-c3nc(-c4cccc(C)c4)no3)cn2)CC1`, the RP-LC retention time was 734 s.

Compound `O=C(NCc1ccc(F)cc1)c1cn2ccncc2n1` gave an RP-LC retention time of 667 s.

With `Cc1nn(-c2ccccc2)cc1C(=O)N1CCC(CC(=O)NC2CC2)CC1`, the RP-LC retention time came to 667 s.

`CCCS(=O)(=O)N1CCC2(CC1)CC(N1CCN(c3ccccc3)CC1)CCO2` (stereo not drawn) yielded an RP-LC retention time of 538 s.

On to `Cc1ccnc(N2CCC(C(=O)N3CCC(C(N)=O)(N4CCCCC4)CC3)CC2)n1`, for which the RP-LC retention time was 547 s.

Compound `CCN1C(=O)COc2ccc(-c3noc(C4CC(=O)N(c5cccc(Cl)c5)C4)n3)cc21` (stereo not drawn) displayed an RP-LC retention time of 1010 s.

On to `CCCN1C(=O)COc2ccc(-c3noc(-c4cccc(NC(=O)c5ccco5)c4)n3)cc21`, for which the RP-LC retention time was determined as 1100 s.

`O=C(Cn1nc2c3ccc(F)cc3ncn2c1=O)Nc1ccc(Cl)cc1` returned an RP-LC retention time of 760 s.

Turning to `Fc1cccc(-c2noc(Cc3nc(-c4ccc(Cl)cc4)cs3)n2)c1`, the RP-LC retention time was 1330 s.

The compound `COc1ccccc1NC(=O)N1CCC(CNC(=O)c2ccccc2C(F)(F)F)CC1` returned an RP-LC retention time of 763 s.

Compound `CCOC(=O)c1noc2ncnc(NCCc3ccc(OCC)cc3)c12` showed an RP-LC retention time of 1060 s.

For the compound `Cn1ncc2c3ccccc3n(CC(=O)N3CCN(c4ncccn4)CC3)c2c1=O`, the RP-LC retention time was determined as 700 s.

As to `C=CCN1C(=O)COc2ccc(-c3nc(NC(=O)c4cccc(C)c4)sc3C)cc21`, the RP-LC retention time was found to be 1110 s.

`COc1ccc(NC(=O)C2CCN(S(=O)(=O)c3ccc4[nH]c5c(c4c3)CCCCC5)CC2)cc1` displayed an RP-LC retention time of 1040 s.

For `O=C(Nc1ccc(-c2ccno2)cc1)C1CCN(C(=O)C2Sc3ccccc3NC2=O)CC1` (stereo not drawn), the RP-LC retention time amounted to 766 s.

For the compound `COc1ccc(N2C(=O)CC(c3ccc(OC)c(OC)c3)CC2=O)cc1`, the RP-LC retention time was determined as 780 s.

`CCc1cccc(C)c1N(C(=O)Cn1c(COC)nc2ccccc21)C(C)COC` (stereo not drawn): the RP-LC retention time was 850 s.

Consider `FC(F)(F)c1ccccc1-n1ccnc1`, for which the RP-LC retention time was found to be 633 s.

In the case of `COc1ccc(NC(=O)N2CC3CCCN3c3ccccc32)c(OC)c1` (stereo not drawn), the RP-LC retention time was determined as 1090 s.

The compound `Cc1nc(-c2csc(S(=O)(=O)N3CCCC(C(=O)N4CCCCCC4)C3)c2)no1` (stereo not drawn) gave an RP-LC retention time of 902 s.

`CCOC(=O)c1c(C)oc2nc(C)nc(NCCc3ccc(Cl)cc3)c12` had an RP-LC retention time of 1380 s.

As for `COC(=O)c1ccc2c(C(C)=O)c[nH]c2c1`, the RP-LC retention time is 642 s.

For `Cc1cn(C)c(CC(=O)NCc2ccco2)c1C(=O)O`, the RP-LC retention time amounted to 671 s.

In turn, `CC(NC(=O)Cn1cc(C(=O)c2ccco2)c2ccccc21)c1ccc2c(c1)OCCCO2` (stereo not drawn) yielded an RP-LC retention time of 837 s.

`Cc1nn(CC(=O)NCCN(C)C)c(=O)c2cc(-c3ccccc3)nn12` returned an RP-LC retention time of 625 s.

`Cc1cc(Cl)ccc1S(=O)(=O)N1C[C@H](F)C[C@@H]1C(=O)N1CCOCC1` gave an RP-LC retention time of 762 s.

Take `CCOc1ccc(S(=O)(=O)N(CC)CC(=O)N2CCNCC2)cc1`: the RP-LC retention time was 623 s.

As for `Cc1ccc2c(=O)c(C(=O)N3CCCC3)cn(CC(=O)Nc3ccc(F)c(F)c3)c2n1`, the RP-LC retention time was found to be 720 s.

Compound `COc1ccc(NS(=O)(=O)c2ccc(-c3nnc(C4CCC4)o3)o2)cc1` returned an RP-LC retention time of 864 s.

On to `CCc1ccc(S(=O)(=O)NCc2c(-c3ccccc3)nc3sc(CC)nn23)cc1`, for which the RP-LC retention time worked out at 1020 s.

Take `CC(=O)N[C@@H]1CCN(Cc2ccccc2C(F)(F)F)C[C@@H]1CO`: the RP-LC retention time was determined as 574 s.

As for `Cc1cccc(CN2CCC(CNC(=O)Nc3cn(C)c(=O)c4ccccc34)CC2)c1`, the RP-LC retention time amounted to 603 s.

The compound `O=C(NCc1cccnc1-c1ccc(F)cc1)c1ccc(F)cc1F` yielded an RP-LC retention time of 690 s.

With `CCN(CC)c1ccc(NC(=O)C2CCCN(c3nc4ccccc4nc3C(F)(F)F)C2)c(C)c1` (stereo not drawn), the RP-LC retention time was 825 s.

On to `Cc1ccc2c(c1)C1CC(C)(O2)N(c2cccc(C(=O)O)c2)C(=O)N1` (stereo not drawn), for which the RP-LC retention time turned out to be 912 s.

Consider `CC(C)Cn1cc(CCNC(=O)Nc2ccc(F)c(Cl)c2)c2cccnc21`, for which the RP-LC retention time stood at 912 s.

Turning to `Cc1ccn2cc(C(=O)NCc3cc(F)ccc3F)nc2c1`, the RP-LC retention time came out at 657 s.

Consider `Fc1ccc(CN2CC(F)(F)C[C@H]2COc2cccnc2)c(Cl)c1`, for which the RP-LC retention time amounted to 870 s.

As to `COc1ccc(/C=C2\Cc3ccccc3C2=O)cc1OC`, the RP-LC retention time was 892 s.

With `Cc1cccc(NC(=O)Cn2c(C)nc3c(sc4nc(-c5ccccc5)ccc43)c2=O)c1C`, the RP-LC retention time amounted to 1170 s.

In turn, `CCOc1ccccc1NC(=O)N1CCC2(CC1)NC(=O)c1cc(Cl)ccc1N2C` registered an RP-LC retention time of 904 s.

As to `CCc1nc(-c2ccc(-c3noc(-c4ccncc4)n3)cc2)cs1`, the RP-LC retention time came out at 1230 s.

As to `O=C(NC1CC1)C1CCCN(c2ccc(Sc3ccc(Br)cc3)nn2)C1` (stereo not drawn), the RP-LC retention time is 785 s.

Compound `Cc1ccccc1Cc1nc(-c2cccc(-c3ccn[nH]3)c2)no1` showed an RP-LC retention time of 985 s.

`COc1ccc(CN2CCC3(CC2)CC(C)(O)CCO3)c(OC)c1` (stereo not drawn) displayed an RP-LC retention time of 607 s.

The compound `Cc1ccc(-c2noc(C3CC3)n2)cc1S(=O)(=O)N1CCC(C(=O)N2CCOCC2)CC1` displayed an RP-LC retention time of 697 s.

`O=C(Cn1cc(C(=O)C(=O)N2CCOCC2)c2ccccc21)NCc1ccc2c(c1)OCCCO2` showed an RP-LC retention time of 704 s.

`CC(=O)Nc1nnc(SCc2nnc(-c3ccccc3C)o2)s1` registered an RP-LC retention time of 740 s.

For `Cc1ccc(CNC(=O)Nc2cccc(-c3ccc(N4CCC(C)CC4)nn3)c2)cc1`, the RP-LC retention time came out at 784 s.

`COc1cc(C)c(C)cc1S(=O)(=O)NCC1CCN(C(=O)Oc2ccccc2)CC1` registered an RP-LC retention time of 964 s.

As to `O=C1NCCCn2cc(S(=O)(=O)N3CCN(c4ccccc4)CC3)cc21`, the RP-LC retention time stood at 724 s.

Consider `O=C(c1ccoc1)N1CCCC(OCc2nc(-c3ccncc3)no2)C1` (stereo not drawn), for which the RP-LC retention time turned out to be 668 s.

Regarding `COc1cc(C(=O)N2CCN(c3cc(=O)n(C(C)C)c(=O)n3C(C)C)CC2)cc(OC)c1OC`, the RP-LC retention time turned out to be 800 s.

In turn, `O=C(Nc1cccc(-c2nc3ccccc3o2)c1)c1ccc(F)cc1F` showed an RP-LC retention time of 994 s.

The compound `CCOC(=O)c1cc(S(=O)(=O)N2CCCC2C(=O)Nc2nc3ccc(C)cc3s2)cn1C` (stereo not drawn) gave an RP-LC retention time of 1040 s.

`CCn1cc(-c2nc(C)c(C(=O)Nc3cccc(OC)c3)s2)c2cccnc21` gave an RP-LC retention time of 983 s.

`CCn1ccc2c(cc(C(=O)Nc3cc(OC)ccc3OC)n2C)c1=O` came in with an RP-LC retention time of 746 s.

With `O=C(Cn1ncc2c(N3CCN(c4ccccn4)CC3)ncnc21)Nc1cc(F)cc(F)c1`, the RP-LC retention time is 634 s.

The compound `Cc1nc(-c2ccncc2)nc2c1CCC(=O)N2C1CCCCC1` yielded an RP-LC retention time of 851 s.

As for `COc1cc([C@@H]2c3cc4c(cc3[C@H](O)[C@@H](CO)[C@@H]2C(=O)NCc2cccc(C(F)(F)F)c2)OCO4)cc(OC)c1OC`, the RP-LC retention time was 783 s.

On to `CC(C)c1cc(N2CCN(C(=O)c3ccc(N(C)C)cc3)CC2)nc2nncn12`, for which the RP-LC retention time came to 606 s.

`COC(=O)c1sc2ccccc2c1S(=O)(=O)N1CCC(C(N)=O)(N2CCCCC2)CC1`: the RP-LC retention time came to 652 s.

`Cc1cccc(CN2CCn3c(nnc3[C@@H]3C[C@@H](O)CN3Cc3cccnc3)C2)c1`: the RP-LC retention time stood at 586 s.
